From patent US4849410A, “Pseudopterosin and synthetic derivatives thereof” (The Regents of the University of California, priority 1987, dated 1989)

Experiments:
P388 leukemia = test: Evaluation in mice bearing ip P388 leukemia; type: in vivo, female B6D2F1 mice; details: for Increase to Lifespan / Median Survival Time / Weight Change Day 5 / Weight Change Day 9: Days 1-5
Experimental: Compound I was also evaluated in mice bearing P388 Leukemia as follows:
Compound I was administered to the mice as a solution by first dissolving it in N,N-dimethylacetamide, adding an equal volume of Cremophor EL and then 8 volumes of water. The drug concentration was such that the desired dose was delivered in a volume of 0.5 ml per mouse. Dilutions from the highest dose in a dose-response study were made by the addition of water so that organic component of the formulation decreased with dose reduction; the drug remained in solution.
10^6 P388 leukemia cells were implanted intraperitoneal in female B6D2F1 mice which were randomized to treatment groups of six animals each. Treatment was initiated 24 hours after tumor implantation and was continued daily for five days (Cisplatin was administered on Days 1 and 5 for the Group 1 mice). Mice were weighted as groups on Days 1, 5 and 9 to provide an indication of drug toxicity. Mice were monitored for survival daily for 45 days, and the median day of death was determined compared to three groups of untreated controls to provide percent increase in lifespan (ILS). ILS values of greater than or equal to 40 percent represent actual reduction in tumor cell burden during the course of treatment and are taken as indications of biologically significant antitumor effect.

sea urchin sperm = test: Sperm Motility Assay; type: cell-based; details: 16 microgram/ml (10^-5 m)
Experimental: Male sea urchins are induced to spawn by injection of 0.5M KCl into the coelomic cavity. Sperm is collected via a pasteur pipette and stored in a test tube on ice. One drop of undiluted sperm is added to 25 ml of filtered fresh seawater, then 1.0 ml volumes of this solution are immediately added to test tubes containing 10 microliter test solution. Aliquots of sperm from each tube are observed microscopically for motility at a time two minutes after addition of sperm to test solution.
The vheicle or carrier for the compounds used in the inflammatory and analgesic assays was as follows; For the mouse ear inflammatory assay, the vehicle was acetone. Controls received 25 microliters of acetone. Test compounds were applied to the experimental animals in 25 microliter volumes. For the sperm motility and fertilized sea urchin egg assays, the compounds were dissolved in 10 microliters undenatured ethanol.

[1] = system: phenyl-p-benzoquinone (PQ) writhing; test: Phenyl-p-benzoquinone Assay for Analgesia; type: in vivo, mouse; details: for % Inhibition (writhing): s.q.
[2] = CNS activity and toxicity in the comparative tests; details: during the anti-inflammatory assay
[3] = system: M5076 reticulum cell sarcoma; test: Activity in mice bearing ip M5076 reticulum cell sarcoma; type: in vivo, female B6D2F1 mice
Experimental: Compound I was also evaluated for activity against solid tumors as follows:
One-half ml of a 10 percent (v:v) brei of tumor cells prepared from solid B16 melanoma or M5076 reticulum cell sarcoma was implanted ip in female B6D2F1 mice which were randomized to treatment groups of 8 animals each. Treatment was initiated 24 hours after tumer inoculation and was continued daily for 10 days (cisplatin was administered q4Dx4 on Days 1, 5, 9 and 13). Mice were monitored daily for 60 days, and the median day of death was determined compared to three groups of untreated controls to provide percent increase in lifespan (ILS). ILS values of greater than or equal to 50 percent represent biologically significant antitumor effects. Cisplatin was curative in M5076 with 6/8 tumor-free survivors on Day 60 at the top dose level.

CC(C)=C[C@H]1C[C@H](C)[C@H]2CC[C@H](C)c3c(O[C@@H]4OC[C@@H](O)[C@H](O)[C@H]4O)c(O)c(C)c1c32 [Compound I, pseudopterosin A]
Increase to Lifespan (P388 leukemia; Group 2, 7.9 mg/kg ip): 10% | Median Survival Time (P388 leukemia; Group 2, 7.9 mg/kg ip): 11 days | Weight Change Day 5 (P388 leukemia; Group 2, 7.9 mg/kg ip): +1.1 gm | Weight Change Day 9 (P388 leukemia; Group 2, 7.9 mg/kg ip): +3.6 gm | Increase to Lifespan (P388 leukemia; Group 2, 11.9 mg/kg ip): 15% | Median Survival Time (P388 leukemia; Group 2, 11.9 mg/kg ip): 11.5 days | Weight Change Day 5 (P388 leukemia; Group 2, 11.9 mg/kg ip): +0.7 gm | Weight Change Day 9 (P388 leukemia; Group 2, 11.9 mg/kg ip): +2.5 gm | Increase to Lifespan (P388 leukemia; Group 2, 17.8 mg/kg ip): 15% | Median Survival Time (P388 leukemia; Group 2, 17.8 mg/kg ip): 11.5 days | Weight Change Day 5 (P388 leukemia; Group 2, 17.8 mg/kg ip): 0 gm | Weight Change Day 9 (P388 leukemia; Group 2, 17.8 mg/kg ip): +2.8 gm | Increase to Lifespan (P388 leukemia; Group 2, 26.7 mg/kg ip): 25% | Median Survival Time (P388 leukemia; Group 2, 26.7 mg/kg ip): 12.5 days | Weight Change Day 5 (P388 leukemia; Group 2, 26.7 mg/kg ip): -0.7 gm | Weight Change Day 9 (P388 leukemia; Group 2, 26.7 mg/kg ip): +3.4 gm | Increase to Lifespan (P388 leukemia; Group 2, 40 mg/kg ip): 30% | Median Survival Time (P388 leukemia; Group 2, 40 mg/kg ip): 13 days | Weight Change Day 5 (P388 leukemia; Group 2, 40 mg/kg ip): -2.1 gm | Weight Change Day 9 (P388 leukemia; Group 2, 40 mg/kg ip): +2.2 gm | Increase to Lifespan (P388 leukemia; Group 2, 60 mg/kg ip): 65% | Median Survival Time (P388 leukemia; Group 2, 60 mg/kg ip): 16.5 days | Weight Change Day 5 (P388 leukemia; Group 2, 60 mg/kg ip): -3.2 gm | Weight Change Day 9 (P388 leukemia; Group 2, 60 mg/kg ip): -0.5 gm | Increase to Lifespan (P388 leukemia; Group I, 1.5 mg/kg ip): 27% | Median Survival Time (P388 leukemia; Group I, 1.5 mg/kg ip): 14 days | Weight Change Day 5 (P388 leukemia; Group I, 1.5 mg/kg ip): +0.1 gm | Weight Change Day 9 (P388 leukemia; Group I, 1.5 mg/kg ip): +4.6 gm | Increase to Lifespan (P388 leukemia; Group I, 3 mg/kg ip): 27% | Median Survival Time (P388 leukemia; Group I, 3 mg/kg ip): 14 days | Weight Change Day 5 (P388 leukemia; Group I, 3 mg/kg ip): +0.4 gm | Weight Change Day 9 (P388 leukemia; Group I, 3 mg/kg ip): +4.2 gm | Increase to Lifespan (P388 leukemia; Group I, 6 mg/kg ip): 36% | Median Survival Time (P388 leukemia; Group I, 6 mg/kg ip): 15 days | Weight Change Day 5 (P388 leukemia; Group I, 6 mg/kg ip): +0.7 gm | Weight Change Day 9 (P388 leukemia; Group I, 6 mg/kg ip): +2.9 gm | Increase to Lifespan (P388 leukemia; Group I, 12 mg/kg ip): 45% | Median Survival Time (P388 leukemia; Group I, 12 mg/kg ip): 16 days | Weight Change Day 5 (P388 leukemia; Group I, 12 mg/kg ip): -2.6 gm | Weight Change Day 9 (P388 leukemia; Group I, 12 mg/kg ip): +1.3 gm | Increase to Lifespan (P388 leukemia; Group I, 24 mg/kg ip): 82% | Median Survival Time (P388 leukemia; Group I, 24 mg/kg ip): 20 days | Weight Change Day 5 (P388 leukemia; Group I, 24 mg/kg ip): +0.4 gm | Weight Change Day 9 (P388 leukemia; Group I, 24 mg/kg ip): -0.6 gm | maximally tolerated dose (P388 leukemia; a daily dose in this range, from weight loss): ~60 mg/kg/day | activity in mice bearing intraperitoneal P388 leukemia (P388 leukemia; mouse, in vivo, ip): demonstrated reproducible activity | activity in mice bearing intraperitoneal P388 leukemia (P388 leukemia; second group, 60 mg/kg/day): significant activity | activity in mice bearing intraperitoneal P388 leukemia (P388 leukemia; second group, dose similar to 24 mg/kg/day): ineffective | inhibition of sperm motility (sea urchin sperm): totally inhibits | ED50 ([1]; 50% inhibition of writhing, n = 10 mice/dose): 4.22 mg/kg | % Inhibition (writhing) ([1]; 2.0 mg/kg): 29% | % Inhibition (writhing) ([1]; 3.5 mg/kg): 46% | % Inhibition (writhing) ([1]; 5.0 mg/kg): 38% | % Inhibition (writhing) ([1]; 7.5 mg/kg): 79% | % Inhibition (writhing) ([1]; 10 mg/kg): 73% | % Inhibition (writhing) ([1]; 20 mg/kg): 96% | CNS stimulation [2]: exhibited the CNS stimulation | Increase to Lifespan ([3]; 8.64 mg/kg ip): -2% | Median Survival Time ([3]; 8.64 mg/kg ip): 20.5 days | Weight Change on Day 9 ([3]; 8.64 mg/kg ip): +0.1 gm | Increase to Lifespan ([3]; 14.4 mg/kg ip): 0% | Median Survival Time ([3]; 14.4 mg/kg ip): 21 days | Weight Change on Day 9 ([3]; 14.4 mg/kg ip): +0.2 gm | Increase to Lifespan ([3]; 24 mg/kg ip): 0% | Median Survival Time ([3]; 24 mg/kg ip): 21 days | Weight Change on Day 9 ([3]; 24 mg/kg ip): +0.6 gm | Increase to Lifespan ([3]; 40 mg/kg ip): -2% | Median Survival Time ([3]; 40 mg/kg ip): 20.5 days | Weight Change on Day 9 ([3]; 40 mg/kg ip): -1.1 gm | Increase to Lifespan ([3]; 66.7 mg/kg ip): 2% | Median Survival Time ([3]; 66.7 mg/kg ip): 21.5 days | Weight Change on Day 9 ([3]; 66.7 mg/kg ip): -2.9 gm | antitumor activity ([3]; M5076 reticulum cell sarcoma): did not demonstrate significant antitumor activity
